# Results: patent US10538555B2, “Macrocyclic inhibitors of the PD-1/PD-L1 and CD80(B7-1)/PD-L1 protein/protein interactions” (BRISTOL-MYERS SQUIBB COMPANY, priority 2014, dated 2020)
# pIC50: −log10 of the molar value. *1 amine or outer side, *2 acyl side, *3 side chain or, on linkers, in order; H or OH if unused. Where a SMILES comes first, the peptide text is derived from it. Bridges are numbered along the chain shown (N, C = ends). [ ]: non-standard residue; d: D form. ξ: configuration not given here. Trp(1-CH2COOH) = N[C@@H](Cc1cn(CC(=O)O)c2ccccc12)C(=O)O; Phe(3,4,5-F3) = N[C@@H](Cc1cc(F)c(F)c(F)c1)C(=O)O; Phe(3,4-F2) = N[C@@H](Cc1ccc(F)c(F)c1)C(=O)O; dPro(4S-Me) = C[C@@H]1CN[C@@H](C(=O)O)C1; Phe(4-F) = N[C@@H](Cc1ccc(F)cc1)C(=O)O; d(cisHyp) = O=C(O)[C@H]1C[C@@H](O)CN1; Bta = N[C@@H](Cc1csc2ccccc12)C(=O)O; NMeY = CN[C@@H](Cc1ccc(O)cc1)C(=O)O; Hyp = O=C(O)[C@@H]1C[C@@H](O)CN1; NMeF = CN[C@@H](Cc1ccccc1)C(=O)O; X1 = O=C([C@H]1COCCN1[*:1])[*:2]; dNMeF = CN[C@H](Cc1ccccc1)C(=O)O; dHyp = O=C(O)[C@H]1C[C@H](O)CN1; NMehSer = CN[C@@H](CCO)C(=O)O; NMeNle = CCCC[C@H](NC)C(=O)O; Pip = O=C(O)[C@@H]1CCCCN1; dPip = O=C(O)[C@H]1CCCCN1; hSer = N[C@@H](CCO)C(=O)O; NMeA = CN[C@@H](C)C(=O)O; Orn = NCCC[C@H](N)C(=O)O; dThz = O=C(O)[C@H]1CSCN1; Dab = NCC[C@H](N)C(=O)O; Dap = NC[C@H](N)C(=O)O; ξC = NC(CS)C(=O)O
# Biological target: T1, Human PD-L1/PD-1 (Homo sapiens, UniProt Q9NZQ7)
# T1 construct: TVMV protease cleavage site (C); made in house; host or cells: HEK293T cells
# Experiment: HTRF Human PD-L1/PD-1 binding assay (PD-1-Ig/PD-L1-His)
# Settings: PD-L1-His 10 nM, PD-1-Ig 20 nM; class symbol; read-out: HTRF Human PD-L1/PD-1 Binding Assay IC50 Range
# Outline: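 Competition of macrocyclic peptides for PD-1/PD-L1 binding measured by HTRF in dPBS containing 0.1% BSA and 0.05% Tween-20. Compound and PD-L1-His (10 nM final) incubated 15 min before PD-1-Ig (20 nM final) and a further 15 min.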
# T1 sequence (Q9NZQ7 with tags, fused parts or gaps): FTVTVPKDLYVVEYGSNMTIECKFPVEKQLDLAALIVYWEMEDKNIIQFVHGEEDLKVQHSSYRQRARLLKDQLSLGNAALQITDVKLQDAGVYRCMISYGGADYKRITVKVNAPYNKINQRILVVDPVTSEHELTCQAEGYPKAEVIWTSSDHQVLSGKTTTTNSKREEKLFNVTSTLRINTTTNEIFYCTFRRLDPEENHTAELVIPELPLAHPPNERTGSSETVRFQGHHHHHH
row,Compound,pIC50
1,CCCC[C@H]1C(=O)N(C)[C@@H](CCCC)C(=O)N[C@@H](CC(C)C)C(=O)N[C@H](C(=O)NCC(N)=O)CSCC(=O)N[C@@H](Cc2ccc(O)cc2)C(=O)N(C)[C@@H](C)C(=O)N[C@@H](CC(N)=O)C(=O)N2CCC[C@H]2C(=O)N[C@@H](CC(N)=O)C(=O)N[C@@H](CCC(N)=O)C(=O)N2C[C@H](O)C[C@H]2C(=O)N[C@@H](Cc2c[nH]c3ccccc23)C(=O)N[C@@H](CCN)C(=O)N[C@@H](Cc2cn(CC(=O)O)c3ccccc23)C(=O)N1C [Example 6118] ({CH2CO}-Y[NMeA]NPNQ[Hyp]W[Dab][Trp(1-CH2COOH)][NMeNle][NMeNle]LCG-NH2; thioether N-14),8.00 to 9.00
2,CCCC[C@H]1C(=O)N(C)[C@@H](CCCC)C(=O)N[C@@H](CN)C(=O)N[C@H](C(=O)NCC(N)=O)CSCC(=O)N[C@@H](Cc2ccc(O)cc2)C(=O)N(C)[C@@H](C)C(=O)N[C@@H](CC(=O)O)C(=O)N2CCC[C@H]2C(=O)N[C@@H](CN)C(=O)N[C@@H](CCC(N)=O)C(=O)N2C[C@H](O)C[C@H]2C(=O)N[C@@H](Cc2c[nH]c3ccccc23)C(=O)N[C@@H](CCN)C(=O)N[C@@H](Cc2cn(CC(=O)O)c3ccccc23)C(=O)N1C [Example 5192] ({CH2CO}-Y[NMeA]DP[Dap]Q[Hyp]W[Dab][Trp(1-CH2COOH)][NMeNle][NMeNle][Dap]CG-NH2; thioether N-14),8.00 to 9.00
3,CCCC[C@H]1C(=O)N(C)[C@@H](CCCC)C(=O)N[C@@H](CCC(=O)O)C(=O)N[C@H](C(=O)NCC(N)=O)CSCC(=O)N[C@@H](Cc2ccc(O)cc2)C(=O)N2CCCC[C@H]2C(=O)N[C@@H](CC(N)=O)C(=O)N2CCC[C@H]2C(=O)N[C@@H](Cc2cnc[nH]2)C(=O)N[C@@H](CCC(=O)O)C(=O)N2C[C@H](O)C[C@H]2C(=O)N[C@@H](Cc2c[nH]c3ccccc23)C(=O)N[C@@H](CO)C(=O)N[C@@H](Cc2c[nH]c3ccccc23)C(=O)N1C [Example 1252] ({CH2CO}-Y[Pip]NPHE[Hyp]WSW[NMeNle][NMeNle]ECG-NH2; thioether N-14),8.00 to 9.00
4,CCCC[C@H]1C(=O)N(C)[C@@H](CCCC)C(=O)N[C@@H](CN)C(=O)N[C@H](C(=O)NCC(N)=O)CSCC(=O)N[C@@H](Cc2ccc(O)cc2)C(=O)N(C)[C@@H](C)C(=O)N[C@@H](CC(N)=O)C(=O)N2CCC[C@H]2C(=O)N[C@@H](Cc2cnc[nH]2)C(=O)N[C@@H](CCC(=O)O)C(=O)N2C[C@H](O)C[C@H]2C(=O)N[C@@H](Cc2c[nH]c3ccccc23)C(=O)N[C@@H](CO)C(=O)N[C@@H](Cc2cn(CC(=O)O)c3ccccc23)C(=O)N1C [Example 6244] ({CH2CO}-Y[NMeA]NPHE[Hyp]WS[Trp(1-CH2COOH)][NMeNle][NMeNle][Dap]CG-NH2; thioether N-14),8.00 to 9.00
5,CCCC[C@H]1C(=O)N(C)[C@@H](CCCC)C(=O)N[C@@H](CCCNC(=N)N)C(=O)NC(C(=O)NCC(N)=O)CSCC(=O)N[C@@H](Cc2ccc(O)cc2)C(=O)N(C)[C@@H](C)C(=O)N[C@@H](CC(N)=O)C(=O)N2CCC[C@H]2C(=O)N[C@@H](CCO)C(=O)N[C@@H](CCO)C(=O)N2CCC[C@H]2C(=O)N[C@@H](Cc2c[nH]c3ccccc23)C(=O)N[C@@H](CO)C(=O)N[C@@H](Cc2c[nH]c3ccccc23)C(=O)N1C (stereo partly drawn) [Example 10021] ({CH2CO}-Y[NMeA]NP[hSer][hSer]PWSW[NMeNle][NMeNle]R[ξC]G-NH2; thioether N-14),7.00 to 8.00
6,CCCC[C@H]1C(=O)N(C)[C@@H](CCCC)C(=O)N[C@@H](CCCNC(=N)N)C(=O)NC(C(=O)NCC(N)=O)CSCC(=O)N[C@@H](Cc2ccc(O)cc2)C(=O)N(C)[C@@H](C)C(=O)N[C@@H](CC(N)=O)C(=O)N2CCC[C@H]2C(=O)N[C@@H](CC(N)=O)C(=O)N[C@@H](CC(C)C)C(=O)N2C[C@H](O)C[C@H]2C(=O)N[C@@H](Cc2c[nH]c3ccccc23)C(=O)N[C@@H](CCO)C(=O)N[C@@H](Cc2csc3ccccc23)C(=O)N1C (stereo partly drawn) [Example 9131] ({CH2CO}-Y[NMeA]NPNL[Hyp]W[hSer][Bta][NMeNle][NMeNle]R[ξC]G-NH2; thioether N-14),8.00 to 9.00

# The next lines start with the values.
row,pIC50,Compound
1,7.00 to 8.00,"CCCC[C@H]1C(=O)N2C[C@@H](C)C[C@@H]2C(=O)N[C@@H](CC(=O)O)C(=O)N[C@@H](C(C)C)C(=O)N(C)[C@H](Cc2ccccc2)C(=O)N[C@@H](Cc2ccc(OC)cc2)C(=O)N2C[C@@H](O)C[C@@H]2C(=O)N[C@@H](Cc2c[nH]c3ccccc23)C(=O)N[C@@H](Cc2ccc(O)cc2)C(=O)N[C@@H](CCCN)C(=O)N[C@H](C(=O)NCC(N)=O)CSCC(=O)N[C@@H](Cc2ccc(F)c(F)c2)C(=O)N(C)[C@@H](Cc2ccccc2)C(=O)N1C [Example 9230] ({CH2CO}-[Phe(3,4-F2)][NMeF][NMeNle][dPro(4S-Me)]DV[dNMeF]Y(Me)[dHyp]WY[Orn]CG-NH2; thioether N-13)"
2,8.00 to 9.00,"CCCC[C@H]1C(=O)N2C[C@H](O)C[C@@H]2C(=O)N[C@@H](CC(=O)O)C(=O)N[C@@H](C(C)C)C(=O)N(C)[C@@H](Cc2ccccc2)C(=O)N[C@@H](CC(=O)O)C(=O)N2CSC[C@@H]2C(=O)N[C@@H](Cc2c[nH]c3ccccc23)C(=O)N[C@@H](Cc2ccc(O)cc2)C(=O)N[C@@H](CCO)C(=O)N[C@H](C(=O)NCC(N)=O)CSCC(=O)N[C@@H](Cc2cc(F)c(F)c(F)c2)C(=O)N(C)[C@@H](Cc2ccccc2)C(=O)N1C [Example 10151] ({CH2CO}-[Phe(3,4,5-F3)][NMeF][NMeNle][d(cisHyp)]DV[NMeF]D[dThz]WY[hSer]CG-NH2; thioether N-13)"
3,7.00 to 8.00,"CCCC[C@H]1C(=O)N2C[C@H](O)C[C@@H]2C(=O)N[C@@H](CC(=O)O)C(=O)N[C@@H](C(C)C)C(=O)N(C)[C@@H](Cc2ccccc2)C(=O)N[C@@H](CC(=O)O)C(=O)N2C[C@H](O)C[C@@H]2C(=O)N[C@@H](Cc2c[nH]c3ccccc23)C(=O)N[C@@H](Cc2ccc(O)cc2)C(=O)N[C@@H](CC(=O)O)C(=O)N[C@H](C(=O)NCC(N)=O)CSCC(=O)N[C@@H](Cc2cc(F)c(F)c(F)c2)C(=O)N(C)[C@@H](Cc2ccccc2)C(=O)N1C [Example 9350] ({CH2CO}-[Phe(3,4,5-F3)][NMeF][NMeNle][d(cisHyp)]DV[NMeF]D[d(cisHyp)]WYDCG-NH2; thioether N-13)"
4,8.00 to 9.00,CCCC[C@H]1C(=O)N(C)[C@@H](CCCC)C(=O)N[C@@H](C)C(=O)N[C@H](C(=O)NCC(N)=O)CSCC(=O)N[C@@H](Cc2ccc(O)cc2)C(=O)N2CCCC[C@H]2C(=O)N[C@@H](CC(=O)O)C(=O)N2CCC[C@H]2C(=O)N[C@@H](CN)C(=O)N[C@@H](CCC(N)=O)C(=O)N2C[C@H](O)C[C@H]2C(=O)N[C@@H](Cc2c[nH]c3ccccc23)C(=O)N[C@@H](CO)C(=O)N[C@@H](Cc2c[nH]c3ccccc23)C(=O)N1C [Example 1257] ({CH2CO}-Y[Pip]DP[Dap]Q[Hyp]WSW[NMeNle][NMeNle]ACG-NH2; thioether N-14)
5,7.00 to 8.00,"CCCC[C@H]1C(=O)N2CCC[C@@H]2C(=O)N[C@@H](CC(=O)O)C(=O)N[C@@H](C(C)C)C(=O)N(C)[C@@H](Cc2ccccc2)C(=O)N[C@@H](CCC(=O)O)C(=O)N2CCOC[C@@H]2C(=O)N[C@@H](Cc2c[nH]c3ccccc23)C(=O)N[C@@H](Cc2ccc(O)cc2)C(=O)N[C@@H](CCC(N)=O)C(=O)N[C@H](C(=O)NCC(N)=O)CSCC(=O)N[C@@H](Cc2cc(F)c(F)c(F)c2)C(=O)N(C)[C@@H](Cc2ccc(O)cc2)C(=O)N1C [Example 10619] ({CH2CO}-[Phe(3,4,5-F3)][NMeY][NMeNle][dP]DV[NMeF]E[X1]WYQCG-NH2; thioether N-13)"
6,8.00 to 9.00,"COCC[C@H]1C(=O)N2C[C@@H](O)C[C@@H]2C(=O)N[C@@H](CC(=O)O)C(=O)N[C@@H](C(C)C)C(=O)N(C)[C@@H](Cc2ccccc2)C(=O)N[C@@H](Cc2ccc(O)cc2)C(=O)N2C[C@@H](O)C[C@@H]2C(=O)N[C@@H](Cc2c[nH]c3ccccc23)C(=O)N[C@@H](Cc2ccc(O)cc2)C(=O)N[C@@H](CC(C)C)C(=O)N[C@H](C(=O)NCC(N)=O)CSCC(=O)N[C@@H](Cc2ccc(F)c(F)c2)C(=O)N(C)[C@@H](Cc2ccccc2)C(=O)N1C [Example 9233] ({CH2CO}-[Phe(3,4-F2)][NMeF][NMehSer](Me)[dHyp]DV[NMeF]Y[dHyp]WYLCG-NH2; thioether N-13)"
7,7.00 to 8.00,"CCCC[C@H]1C(=O)N2CCCC[C@@H]2C(=O)N[C@@H](CC(=O)O)C(=O)N[C@@H](C(C)C)C(=O)N(C)[C@@H](Cc2ccccc2)C(=O)N[C@@H](CCC(=O)O)C(=O)N2CCOC[C@@H]2C(=O)N[C@@H](Cc2c[nH]c3ccccc23)C(=O)N[C@@H](Cc2ccc(O)cc2)C(=O)N[C@@H](CCCN)C(=O)N[C@H](C(=O)NCC(N)=O)CSCC(=O)N[C@@H](Cc2cc(F)c(F)c(F)c2)C(=O)N(C)[C@@H](Cc2ccccc2)C(=O)N1C [Example 3641] ({CH2CO}-[Phe(3,4,5-F3)][NMeF][NMeNle][dPip]DV[NMeF]E[X1]WY[Orn]CG-NH2; thioether N-13)"
8,6.00 to 7.00,CCCC[C@H]1C(=O)N2CCC[C@@H]2C(=O)N[C@@H](CC(=O)O)C(=O)N[C@@H](C(C)C)C(=O)N(C)[C@@H](CCOC)C(=O)N[C@@H](CCC(N)=O)C(=O)N2CCCC[C@@H]2C(=O)N[C@@H](Cc2c[nH]c3ccccc23)C(=O)N[C@@H](Cc2ccc(O)cc2)C(=O)N[C@@H](CC(C)C)C(=O)N[C@H](C(=O)NCC(N)=O)CSCC(=O)N[C@@H](Cc2ccc(F)cc2)C(=O)N(C)[C@@H](Cc2ccccc2)C(=O)N1C [Example 9224] ({CH2CO}-[Phe(4-F)][NMeF][NMeNle][dP]DV[NMehSer](Me)Q[dPip]WYLCG-NH2; thioether N-13)

# Same assay, conditions: PD-L1-His 10 nM, PD-1-Ig 20 nM; read-out: HTRF Human PD-L1/PD-1 Binding Assay IC50
row,pIC50,Compound
1,6.87,CCCC[C@H]1C(=O)N(C)[C@@H](CCCC)C(=O)N[C@@H](CCCNC(=N)N)C(=O)NC(C(=O)NCC(N)=O)CSCC(=O)N[C@@H](Cc2ccc(O)cc2)C(=O)N(C)[C@@H](C)C(=O)N[C@@H](CC(N)=O)C(=O)N2CCC[C@H]2C(=O)N[C@@H](CCO)C(=O)N[C@@H](CO)C(=O)N2CCC[C@H]2C(=O)N[C@@H](Cc2c[nH]c3ccccc23)C(=O)N[C@@H](CO)C(=O)N[C@@H](Cc2csc3ccccc23)C(=O)N1C (stereo partly drawn) [Example 10022] ({CH2CO}-Y[NMeA]NP[hSer]SPWS[Bta][NMeNle][NMeNle]R[ξC]G-NH2; thioether N-14)
